# From US8211901B2, “Naphthamide derivatives as multi-target protein kinase inhibitors and histone deacetylase inhibitors” (Shenzhen Chipscreen Biosciences Ltd., priority 2009, dated 2012)
# Columns and labels:
# Format in all cases: in vivo, nu/nu mice
# [1] = Body weight in SSMC7721 xenograft study (Example 56); conditions: 40 mg/kg orally once a day for 30 days
# Experimental: The antitumor activity of compound 33 and compound 37 were measured in human SSMC7721 liver cancer xenograft model. The female nu/nu mice of 18˜20 g were fed by normal diet for 3 days. Then the cultured SSMC7721 human liver cancer cells were implanted into the armpit of 50 mice. […] Each group has 8 mice. One group was treated with vehicle. One group was treated with sutent, the positive control drug. Two groups were treated with compound 33. The other two groups were treated with compound 37. Each group was dosed orally once a day for 30 days. Tumor volumes as established by caliper measurements were recorded twice per week, along with body weights. At the end of study, the mice were killed, and tumors were weighed. The tumor growth inhibition of each group was calculated using the formula {[(the average tumor weight of vehicle group)−(the average tumor weight of drug group)]/(the average tumor weight of vehicle group)}×100%.
# [2] = Body weight in HCT-8 xenograft study (Example 52); conditions: 40 mg/kg orally once a day for 20 days
# Experimental: The antitumor activity of compound 31 was measured in human HCT-8 colon cancer xenograft model. The female nu/nu mice of 18˜20 g were fed by normal diet for 3 days. Then the cultured HCT-8 human colon cancer cells were implanted into the armpit of 50 mice. When tumors had reached approximately 100 mm^3, the mice were divided into 6 groups randomly. Each group has 8 mice. One group was treated with vehicle. One group was treated with sutent, the positive control drug. […] Each group was dosed orally once a day for 20 days. Tumor volumes as established by caliper measurements were recorded twice per week, along with body weights. At the end of study, the mice were killed, and tumors were weighed. The tumor growth inhibition of each group was calculated using the formula {[(the average tumor weight of vehicle group)−(the average tumor weight of drug group)]/(the average tumor weight of vehicle group)}×100%.
# [3] = Body weight in HCT-8 xenograft study (Example 55); conditions: 40 mg/kg orally once a day for 20 days
# Experimental: (§1) The antitumor activity of compound 33 and compound 37 were measured in human HCT-8 colon cancer xenograft model. The female nu/nu mice of 18˜20 g were fed by normal diet for 3 days. Then the cultured HCT-8 human colon cancer cells were implanted into the armpit of 50 mice. […] One group was treated with vehicle. One group was treated with sutent, the positive control drug. Two groups were treated with compound 33. The other two groups were treated with compound 37. Compound 33 was administered twice a day with an interval of 6 hours. Other drugs and vehicle were administered once a day. Each group was dosed orally for 20 days. Tumor volumes as established by caliper measurements were recorded twice per week, along with body weights. At the end of study, the mice were killed, and tumors were weighed. The tumor growth inhibition of each group was calculated using the formula {[(the average tumor weight of vehicle group)−(the average tumor weight of drug group)]/(the average tumor weight of vehicle group)}×100%.
# [4] = Body weight in A549 xenograft study (Example 51); conditions: 40 mg/kg orally once a day for 24 days
# Experimental: The antitumor activity of compound 31 was measured in human A549 lung cancer xenograft model. […] Then the cultured A549 human lung cancer cells were implanted into the armpit of 50 mice. When tumors had reached approximately 6 mm in diameter, the mice were divided into 6 groups randomly. Each group has 8 mice. One group was treated with vehicle. One group was treated with sutent, the positive control drug. […] Each group was dosed orally once a day for 24 days. Tumor volumes as established by caliper measurements were recorded twice per week, along with body weights. At the end of study, the mice were killed, and tumors were weighed. The tumor growth inhibition of each group was calculated using the formula {[(the average tumor weight of vehicle group)-(the average tumor weight of drug group)]/(the average tumor weight of vehicle group)}×100%.
# [5] = Body weight in HCT-8 xenograft study (Example 54); conditions: 40 mg/kg orally once a day for 20 days
# Experimental: The antitumor activity of compound 33 and compound 34 were measured in human HCT-8 colon cancer xenograft model. The female nu/nu mice of 18˜20 g were fed by normal diet for 3 days. Then the cultured HCT-8 human colon cancer cells were implanted into the armpit of 50 mice. When tumors had reached approximately 100 mm^3, the mice were divided into 6 groups randomly. Each group has 8 mice. One group was treated with vehicle. One group was treated with sutent, the positive control drug. Two groups were treated with compound 33. The other two groups were treated with compound 34. Each group was dosed orally once a day for 20 days. Tumor volumes as established by caliper measurements were recorded twice per week, along with body weights. At the end of study, the mice were killed, and tumors were weighed. The tumor growth inhibition of each group was calculated using the formula {[(the average tumor weight of vehicle group)−(the average tumor weight of drug group)]/(the average tumor weight of vehicle group)}×100%.
# [6] = system: human SSMC7721 liver cancer xenograft; test: Antitumor activity of compound 31, SSMC7721 xenograft (Example 53); conditions: 40 mg/kg orally once a day for 30 days
# Experimental: (§2) The antitumor activity of compound 31 was measured in human SSMC7721 liver cancer xenograft model. The female nu/nu mice of 18˜20 g were fed by normal diet for 3 days. Then the cultured SSMC7721 human liver cancer cells were implanted into the armpit of 50 mice. […] One group was treated with vehicle. One group was treated with sutent, the positive control drug. […] Each group was dosed orally once a day for 30 days. Tumor volumes as established by caliper measurements were recorded twice per week, along with body weights. At the end of study, the mice were killed, and tumors were weighed. The tumor growth inhibition of each group was calculated using the formula {[(the average tumor weight of vehicle group)−(the average tumor weight of drug group)]/(the average tumor weight of vehicle group)}×100%.
# [7] = Body weight in SSMC7721 xenograft study (Example 53); conditions: 40 mg/kg orally once a day for 30 days
# Experimental: as §2
# [8] = system: human HCT-8 colon cancer xenograft; test: Antitumor activity of compounds 33 and 37, HCT-8 xenograft (Example 55); conditions: 40 mg/kg orally once a day for 20 days
# Experimental: as §1
structure (smiles),measurement,setting,value
"CCN(CC)CCNC(=O)c1c(C)[nH]c(/C=C2\C(=O)Nc3ccc(F)cc32)c1C [Sutent, reference compound]",Body weight (g) end,[1]; end,24.0 ± 0.6 g
same,Body weight (g) start,[1]; start,21.2 ± 1.1 g
same,Body weight (g) end,[2]; end,22.4 ± 1.1 g
same,Body weight (g) start,[2]; start,21.5 ± 0.7 g
same,Body weight (g) end,[3]; end,23.7 ± 0.8 g
same,Body weight (g) start,[3]; start,21.3 ± 0.6 g
same,Body weight (g) end,[4]; end,24.4 ± 2.3 g
same,Body weight (g) start,[4]; start,20.3 ± 1.4 g
same,Body weight (g) end,[5]; end,22.1 ± 1.5 g
same,Body weight (g) start,[5]; start,20.6 ± 1.2 g
same,TGI (%) Tumor growth inhibition,[6],70.3%
same,Tumor weight,[6],1.00 ± 0.68 g
same,Body weight (g) end,[7]; end,24.8 ± 1.2 g
same,Body weight (g) start,[7]; start,21.0 ± 0.8 g
same,TGI (%) Tumor growth inhibition,[8],95.3%
